Laboratory results as given in patent publication US20030072816A1, “Agents improving skin barrier function” (priority 2000, published 2003).

System: Human epidermal keratinocytes
Experiment: Formation of CE in cultured keratinocytes (amount of CE by visual observation or count under a microscope)
Type: cell-based
Parameters: key: −: No CE formation; ++: CE formation in an amount equal to that in positive control (growth medium) is observed; +++: Clearly more CE formation than in positive control (growth medium) is observed
Conditions: test substance 3% in MEM containing 0.1% bovine serum albumin, cultured 1 week
Procedure: Human epidermal keratinocytes were cultured according to the method of Rheinwald & Green (Cell 6: 331-344, 1975). The cells were cultured in a growth medium (DMEM-Ham's F12 (3:1) containing 10% fetal bovine serum, 0.5 μg/ml hydrocortisone, 5 μg/ml insulin, 10^−10 M cholera toxin, 10 ng/ml epidermal growth factor and 1.8×10^−4 M adenine) up to confluent, the medium was replaced with a medium (MEM containing 0.1% bovine serum albumin) containing a test substance, and culturing was continued for further 1 week. After completion of the culturing, Tris-hydrochloric acid buffer containing dithiothreitol and sodium dodecyl sulfate was added, and the mixture was heated at 100° C. for 10 minutes. The insoluble substance was collected by centrifugation at 4,000 g for 10 minutes. The eluent addition and heating were repeated and thereby soluble components were thoroughly removed. The thus obtained insoluble substance was referred to as CE. The amount of the obtained CE was evaluated by visual observation. Otherwise, the number was counted under a microscope using a cytometer.

SMILES: CC(C)CCCC(C)CCCC(C)CCCCC(C)CCCC(C)CCCC(C)C (stereo not shown) [Squalane]
- CE formation-accelerating effect: −
